Results reported in publication PMC7012919, “TRPM7 contributes to progressive nephropathy” (Scientific Reports, 2020).

Biological target: TRPM7 (Rattus norvegicus, UniProt Q925B3)
Test: whole-cell patch clamp of endogenous TRPM7 currents in NRK-52E and NRK-49F cells ([…] complete block); IC50 from Fura-2 Mn2+ quench in NRK-52E cells
Format: cell-based

TRPM7, sequence (Q925B3 whole entry): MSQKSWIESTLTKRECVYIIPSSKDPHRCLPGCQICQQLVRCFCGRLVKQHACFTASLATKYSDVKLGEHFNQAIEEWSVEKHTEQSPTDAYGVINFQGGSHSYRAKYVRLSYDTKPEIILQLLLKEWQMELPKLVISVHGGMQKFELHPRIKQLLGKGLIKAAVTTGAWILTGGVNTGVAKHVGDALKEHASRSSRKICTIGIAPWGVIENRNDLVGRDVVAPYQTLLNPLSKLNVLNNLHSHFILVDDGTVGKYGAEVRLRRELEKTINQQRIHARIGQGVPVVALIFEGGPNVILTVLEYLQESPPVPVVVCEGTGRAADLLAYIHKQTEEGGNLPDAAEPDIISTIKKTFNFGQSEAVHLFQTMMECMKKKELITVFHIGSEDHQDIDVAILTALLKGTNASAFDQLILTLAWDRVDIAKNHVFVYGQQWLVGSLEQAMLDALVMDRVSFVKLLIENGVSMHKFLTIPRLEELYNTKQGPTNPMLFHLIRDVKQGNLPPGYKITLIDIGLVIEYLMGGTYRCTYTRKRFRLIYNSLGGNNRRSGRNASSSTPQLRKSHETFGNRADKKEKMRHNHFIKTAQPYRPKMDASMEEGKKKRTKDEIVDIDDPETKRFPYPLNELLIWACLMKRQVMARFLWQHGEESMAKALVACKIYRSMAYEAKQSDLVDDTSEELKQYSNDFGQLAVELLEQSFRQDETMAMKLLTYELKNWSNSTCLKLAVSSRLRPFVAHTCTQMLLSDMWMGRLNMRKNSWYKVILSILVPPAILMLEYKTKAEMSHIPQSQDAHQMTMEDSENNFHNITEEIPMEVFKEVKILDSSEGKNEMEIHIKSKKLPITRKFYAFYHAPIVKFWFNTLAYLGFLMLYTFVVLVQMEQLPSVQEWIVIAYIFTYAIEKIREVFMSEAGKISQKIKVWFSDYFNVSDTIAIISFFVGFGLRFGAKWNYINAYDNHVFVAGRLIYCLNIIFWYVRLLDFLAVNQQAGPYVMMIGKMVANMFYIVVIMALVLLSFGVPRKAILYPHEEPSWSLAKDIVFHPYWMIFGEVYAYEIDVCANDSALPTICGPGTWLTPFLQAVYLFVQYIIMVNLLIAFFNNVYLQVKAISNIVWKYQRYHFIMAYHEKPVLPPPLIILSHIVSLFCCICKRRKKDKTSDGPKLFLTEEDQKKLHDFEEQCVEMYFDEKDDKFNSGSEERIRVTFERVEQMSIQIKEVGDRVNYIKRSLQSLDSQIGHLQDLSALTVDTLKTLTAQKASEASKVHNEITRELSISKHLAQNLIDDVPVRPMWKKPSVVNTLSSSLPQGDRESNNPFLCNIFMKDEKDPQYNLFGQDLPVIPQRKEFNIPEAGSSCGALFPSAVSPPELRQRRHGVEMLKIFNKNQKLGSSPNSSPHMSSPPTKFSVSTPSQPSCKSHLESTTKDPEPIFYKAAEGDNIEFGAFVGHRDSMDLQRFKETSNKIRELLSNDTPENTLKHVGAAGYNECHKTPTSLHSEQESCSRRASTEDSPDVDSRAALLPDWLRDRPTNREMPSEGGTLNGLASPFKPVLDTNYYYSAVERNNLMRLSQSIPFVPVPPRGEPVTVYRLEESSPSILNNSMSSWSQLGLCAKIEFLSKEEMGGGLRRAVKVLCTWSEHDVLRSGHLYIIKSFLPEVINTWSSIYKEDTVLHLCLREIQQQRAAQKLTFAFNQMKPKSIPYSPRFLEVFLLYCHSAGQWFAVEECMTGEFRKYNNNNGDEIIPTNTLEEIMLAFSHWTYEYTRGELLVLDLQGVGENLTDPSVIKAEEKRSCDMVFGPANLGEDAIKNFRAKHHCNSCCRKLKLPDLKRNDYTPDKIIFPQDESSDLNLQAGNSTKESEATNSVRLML

## c1ccc2c(c1)CCC[C@H]2Nc1nc2ccccc2[nH]1 [NS8593]
  IC50: 16 ± 3 µM
